Experimental data from paper PMC4895354 (2016).
Each block holds one compound with its values, some of them ahead of it.

Legend:
[1] = tested on: AUAU (RNA, hairpin) AUAUAUAUAUAUGAAAAUAUAUAUAUAU; test: fluorescence titration, sigmoidal fit; details: 185 mM NaCl, 8 mM Na2HPO4, pH 7.0, 0.1 mM EDTA, RNA titrated
[2] = tested on: r(AUUCU)11 (RNA, repeat) AUUCUAUUCUAUUCUAUUCUAUUCUAUUCUAUUCUAUUCUAUUCUAUUCUAUUCU; test: fluorescence titration, lattice (Scatchard-type) fit; details: 185 mM NaCl, 8 mM Na2HPO4, pH 7.0, 0.1 mM EDTA, microscopic Kd, per site
[3] = tested on: GCGC (RNA, hairpin) GCGCGCGCGAAAGCGCGCGC; test: fluorescence titration, sigmoidal fit; details: 185 mM NaCl, 8 mM Na2HPO4, pH 7.0, 0.1 mM EDTA, RNA titrated
[4] = tested on: GGCC (RNA, hairpin) GGCCGGCCGAAAGGCCGGCC; test: fluorescence titration, sigmoidal fit; details: 185 mM NaCl, 8 mM Na2HPO4, pH 7.0, 0.1 mM EDTA, RNA titrated
[5] = tested on: AAUU (RNA, hairpin) AAUUAAUUAAUUGAAAAAUUAAUUAAUU; test: fluorescence titration, sigmoidal fit; details: 185 mM NaCl, 8 mM Na2HPO4, pH 7.0, 0.1 mM EDTA, RNA titrated
[6] = tested on: r(AUUCU)11, 5'-32P labelled (RNA, repeat) AUUCUAUUCUAUUCUAUUCUAUUCUAUUCUAUUCUAUUCUAUUCUAUUCUAUUCU; test: RNase V1 protection; details: 1× RNA Structure Buffer; compound 0-20 μM; protects each AU pair
[7] = tested on: AAUU (RNA, hairpin) AAUUAAUUAAUUGAAAAAUUAAUUAAUU; test: fluorescence titration, lattice (Scatchard-type) fit; details: 185 mM NaCl; 8 mM Na2HPO4, pH 7.0, 0.1 mM EDTA; microscopic Kd; per site
[8] = tested on: AUAU (RNA, hairpin) AUAUAUAUAUAUGAAAAUAUAUAUAUAU; test: as above; details: 185 mM NaCl; 8 mM Na2HPO4, pH 7.0, 0.1 mM EDTA; microscopic Kd; per site
[9] = tested on: r(AUUCU)11 for TR-FRET (RNA, repeat) AUUCUAUUCUAUUCUAUUCUAUUCUAUUCUAUUCUAUUCUAUUCUAUUCUAUUCU; test: TR-FRET, inhibition of RNA-protein complex; details: 110 mM KCl, 110 mM NaCl, 2 mM MgCl2, 2 mM CaCl2, 20 mM HEPES pH 7.5, DGCR8Δ 40 nM displaced, RNA 60 nM
[10] = tested on: r(CCUG)12 (RNA, repeat) CCUGCCUGCCUGCCUGCCUGCCUGCCUGCCUGCCUGCCUGCCUGCCUG; test: fluorescence titration, sigmoidal fit; details: 185 mM NaCl; 8 mM Na2HPO4, pH 7.0, 0.1 mM EDTA; range over four repeats 36–87 nM
[11] = tested on: r(AUUCU)11 (RNA, repeat) AUUCUAUUCUAUUCUAUUCUAUUCUAUUCUAUUCUAUUCUAUUCUAUUCUAUUCU; test: fluorescence titration, sigmoidal fit; details: 185 mM NaCl, 8 mM Na2HPO4, pH 7.0, 0.1 mM EDTA
[12] = tested on: r(CUG)12 (RNA, repeat) CUGCUGCUGCUGCUGCUGCUGCUGCUGCUGCUGCUG; test: fluorescence titration, sigmoidal fit; details: 185 mM NaCl; 8 mM Na2HPO4, pH 7.0, 0.1 mM EDTA; range over four repeats 36–87 nM
[13] = tested on: r(CGG)12 (RNA, repeat) CGGCGGCGGCGGCGGCGGCGGCGGCGGCGGCGGCGG; test: fluorescence titration, sigmoidal fit; details: 185 mM NaCl; 8 mM Na2HPO4, pH 7.0, 0.1 mM EDTA; range over four repeats 36–87 nM
[14] = tested on: r(AUUCU)11, 5'-32P labelled (RNA, repeat) AUUCUAUUCUAUUCUAUUCUAUUCUAUUCUAUUCUAUUCUAUUCUAUUCUAUUCU; test: filter binding (dot blot); details: PBS, 1 mM MgCl2; pH 7.4; 50 μg/ml BSA; RNA 100 nM, compound 1 μM
DGCR8Δ = molecular target: T1, DGCR8Δ (UniProt Q8WYQ5); test: EMSA; details: 2 mM Mg2+, 2 mM Ca2+; EMSA: 20 mM HEPES pH 7.5, 110 mM KCl, 110 mM NaCl, 0.1% BSA, 2 mM MgCl2, 2 mM CaCl2, 0.05% Tween-20, 5 mM DTT, 15 min, room temperature; native 5% PAGE
T1 sequence: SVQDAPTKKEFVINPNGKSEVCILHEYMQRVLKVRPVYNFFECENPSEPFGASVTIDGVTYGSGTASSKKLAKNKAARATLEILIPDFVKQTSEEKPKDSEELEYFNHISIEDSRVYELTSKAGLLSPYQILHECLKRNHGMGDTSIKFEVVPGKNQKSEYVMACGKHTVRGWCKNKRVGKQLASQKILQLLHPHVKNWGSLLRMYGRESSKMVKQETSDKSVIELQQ

Compound: N=C(N)c1ccc(-c2ccc(-c3ccccc3)o2)cc1
binding [10]: yes
EC50 ([1]; 3 μM compound, Hill 1.5±0.32): 45 ± 1 nM
binding ([11]; range over four repeats 36–87 nM): yes
EC50 ([3]; 3 μM compound, Hill 0.92±0.34): 240 ± 10 nM
EC50 ([4]; 3 μM compound, Hill 1.4±0.34): 390 ± 20 nM
binding [12]: yes
EC50 ([5]; 3 μM compound, Hill 3.1±0.79): 170 ± 10 nM
binding [13]: yes

Compound: CCCN(CC(=O)N(CCC)CC(=O)N(CC(N)=O)Cc1cn(CCCNC(=N)c2ccc(-c3ccc(-c4ccc(C(=N)N)cc4)o3)cc2)nn1)C(=O)CNCc1cn(CCCNC(=N)c2ccc(-c3ccc(-c4ccc(C(=N)N)cc4)o3)cc2)nn1
binding ([9]; ~70% inhibition at 1.5 μM): yes
Kd ([2]; Hill 1.4±0.4): 185 ± 1.0 nM
EC50 ([11]; without PEG 8000): 146 ± 8 nM
binding [14]: yes

Compound: AUUCUAUUCUAUUCUAUUCUAUUCUAUUCUAUUCUAUUCUAUUCUAUUCUAUUCU [r(AUUCU)11]
Kd (DGCR8Δ): 1600 nM

Next, values leading:

EC50 ([1]; 1 μM compound, Hill 1.6±0.28): 190 ± 20 nM
Kd ([2]; Hill 1.7±0.2): 300 ± 47 nM
EC50 ([3]; 1 μM compound, Hill 0.77±0.16): 6,950±250 nM
EC50 ([4]; 1 μM compound, Hill 0.85±0.08): 8,550±250 nM
EC50 ([5]; 1 μM compound, Hill 1.5±0.24): 170 ± 40 nM
binding [6]: yes
Kd [7]: 320 nM
Kd [8]: 210 nM
Compound: N=C(N)c1ccc(-c2ccc(-c3ccc(C(=N)N)cc3)o2)cc1

binding ([9]; ~25% inhibition at 1.5 μM): yes
EC50 ([1]; 1 μM compound, Hill 1.0±0.13): 31 ± 4 nM
Kd ([2]; Hill 1.3±0.1): 375 ± 34 nM
EC50 ([3]; 1 μM compound): > 2,000 nM
EC50 ([4]; 1 μM compound): > 6,000 nM
EC50 ([5]; 1 μM compound, Hill 1.0±0.17): 45 ± 6 nM
Compound: [N-]=[N+]=NCCCNC(=N)c1ccc(-c2ccc(-c3ccc(C(=N)N)cc3)o2)cc1
